Laboratory results from paper PMC5387044, “Analogs of the Frog-skin Antimicrobial Peptide Temporin 1Tb Exhibit a Wider Spectrum of Activity and a Stronger Antibiofilm Potential as Compared to the Parental Peptide” (Frontiers in Chemistry, 2017).
Marks after values point to notes of the source that are not given here. No end group written: not given here.

Assays:
P. aeruginosa ATCC 27853 [1] = assay type: cell-based, Pseudomonas aeruginosa; settings: pH 7.4
P. aeruginosa ATCC 27853 [2] = settings: for FIC index / MIC: ATCC 27853, 24 h
[3] = test system: preformed biofilms of S. aureus ATCC 33591; test: Biofilm treatment assay on preformed (24-h old) biofilms, CFU counting, alone and with EDTA; assay type: cell-based, Staphylococcus aureus; settings: 30 μM peptide alone
Method: The activity of TB, TB_L1FK, and TB_KKG6A against preformed (24-h old) biofilms of S. aureus and P. aeruginosa was also investigated. Briefly, biofilms were allowed to form for 24 h in flat-bottom 96-well microplates in the absence of antimicrobial compounds. Established biofilms were then washed three times with PBS in order to remove non-adherent cells and incubated in fresh BPM with different concentrations of the three peptides (from 15 to 120 μM). After 24 h of incubation, the viability of biofilm-associated cells was evaluated by CFU counting. For this purpose, biofilms were washed three times with PBS and bacterial cells were detached from the surface of the wells with a pipette tip, vigorously vortexed and plated in serial dilutions on TSA.
TB_L1FK and TB_KKG6A were combined with EDTA in order to enhance their activity against preformed biofilms of S. aureus and P. aeruginosa. […] Following incubation, the antibiofilm effect was evaluated in terms of number of biofilm-associated viable cells as previously described.
Figure 4 Activity of TB_L1FK and TB_KKG6A, used alone and in combination with EDTA, against preformed (24-h old) biofilms of S. aureus ATCC 33591 (A,B) and P. aeruginosa ATCC 27853 (C,D). The antibiofilm activity of the peptides, EDTA and the peptide-EDTA combinations was evaluated by CFU counting after 24 h of incubation. […]

S. aureus ATCC 33591 [4] = settings: for MIC: ATCC 33591, 24 h
[5] = test system: S. aureus ATCC 33591 biofilm formation; assay type: cell-based, Staphylococcus aureus
S. aureus ATCC 33591 [6] = assay type: cell-based, Staphylococcus aureus; settings: pH 7.4
[7] = test system: preformed biofilms of P. aeruginosa ATCC 27853; test: Biofilm treatment assay on preformed (24-h old) biofilms, CFU counting, alone and with EDTA; assay type: cell-based, Pseudomonas aeruginosa; settings: 30 μM peptide + 2.5 mM EDTA
[8] = test system: human non-small-cell lung adenocarcinoma A549 cells; settings: 24 h
S. aureus ATCC 33591 [9] = settings: ATCC 33591, 24 h, pH 7.4
P. aeruginosa ATCC 27853 [10] = settings: ATCC 27853, 24 h, pH 7.4
[11] = test system: S. epidermidis ATCC 35984; settings: ATCC 35984, 24 h, pH 7.4
[12] = test system: human peripheral blood mononuclear cells (PBMCs); settings: 24 h
[13] = test system: K. pneumoniae ATCC BAA-1706; settings: ATCC BAA-1706, 24 h, pH 7.4
[14] = test system: P. aeruginosa ATCC 27853 biofilm formation

Substance | Time to complete eradication of the starting bacterial inoculum (P. aeruginosa ATCC 27853 [1]) [min] | Concentration of the peptide resulting in a synergistic effect (P. aeruginosa ATCC 27853 [2]) | FIC index (P. aeruginosa ATCC 27853 [2]) | MIC (P. aeruginosa ATCC 27853 [2]) [µM] | Decrease in the number of biofilm-associated viable cells vs untreated biofilms [3] | FIC index (S. aureus ATCC 33591 [4]) | MIC (S. aureus ATCC 33591 [4]) [µM] | Reduction of biofilm formation vs untreated control [5] | Time to bactericidal effect (reduction of at least 3 Log10 in viable bacteria) (S. aureus ATCC 33591 [6]) [min] | Reduction in CFU number of peptide-EDTA combination compared to the peptide used alone [7] | IC50 [8] [µM] | MBC (S. aureus ATCC 33591 [9]) [µM] | MBC (P. aeruginosa ATCC 27853 [10]) [µM] | MBC [11] [µM] | IC50 [12] [µM] | MBC [13] [µM] | Inhibitory activity on forming biofilms [14] | Time to bactericidal effect (P. aeruginosa ATCC 27853 [1]) [min] | Inhibition of biofilm biomass ([14]; ATCC 27853, 24 h, 24 μM) [%]
FLPIVGLLKSLLK-NH2 [TB_L1FK] | ≤ 5 | 0.25 (15 μM)^b | 0.25 (15 μM)^b | 120 | approximately 2 Log10 | > 0.5 | 15 | more than 50% | ≤ 30 | approximately 1 Log10 | 59 | 6 | 6 | 1.5 | 52 | 6 | no inhibitory activity | – | –
KKLLPIVANLLKSLL-NH2 [TB_KKG6A] | – | 0.25 (3.75 μM) | 0.25 (3.75 μM) | 30 | approximately 2 Log10 | > 0.5 | 7.5 | more than 50% | ≤ 60 | approximately 1 Log10 | 16 | 1.5 | 3 | 1.5 | 49 | 3 | – | 15 | 80
